Test results from patent US11352315B2, “Compositions and methods comprising a triaryl polyamine” (Curza Global, LLC, priority 2017, dated 2022).
Values after ≈ are worked out from the molar mass of the structure shown.

What was measured:
P. aeruginosa [1] = experiment: MBEC analysis, MBEC Inoculation Tray (column headed MBC); type: cell-based; conditions: Pseudomonas aeruginosa, 24 hours
Excerpt: (§1) To determine the MBEC of each polyamine compound, the MBEC Inoculation Tray by Innovotech, formerly known as the Calgary biofilm device, was used. Within this device, biofilms grow on the surface of polystyrene pegs, 96 of which are attached to a lid. These pegs are inserted into a flat bottom 96-well plate. In this instance, the MBEC of a molecule was defined as the concentration of compound (in μg/mL) required to reduce 10^5 or 10^6 CFU/peg (biofilm levels varied by isolate) to 10^2 CFU/peg in a 24-hour period.
(§2) Following the manufacturer's guidelines, biofilms were grown on the surface of each peg by first making a 0.5 McFarland of each isolate. The 0.5 McFarland was diluted 1:100 in CAMHB. Into each well of a flat bottom 96-well plate, 150 μL of broth were pipetted. The plate was shaken at 100 rpm for 24 hours (P. aeruginosa and A. baumannii) or 48 hours (MRSA). The pegs were then placed into a separate flat bottom 96-well plate for 10 seconds with 200 μL of phosphate buffered saline (PBS) in each well to remove nonadherent cells. The lid was then placed into a 96-well plate that contained varying concentrations of antimicrobial with 200 μL per well. The plate was incubated for 24 hours at 37° C. after which time 100 μL of broth were plated on TSA. TSA plates were incubated 24 hours at 37° C. and the number of CFU counted to calculate the CFU/peg. In this instance, the MBEC was defined as the concentration of antimicrobial required to reduce 10^5 or 10^6 CFU/peg to 10^2 CFU/peg in a 24 hour period.

MRSA [2] = experiment: as above; type: cell-based; conditions: Staphylococcus aureus, 24 hours
Excerpt: as §1, §2

P. aeruginosa [3] = experiment: MIC analysis; type: cell-based; conditions: Pseudomonas aeruginosa, 24 hours
Procedure: (§3) A clinical strain of MRSA, isolated from a patient who underwent arthroscopic knee surgery and characterized by ARUP Laboratories, Salt Lake City, Utah, was used for this study in addition to Pseudomonas aeruginosa ATCC 27853 and Alcanivorax borkumensis ATCC 700651. P. aeruginosa was resuspended in BHI broth, grown overnight at 37° C. and transferred to fresh BHI with 30% glycerol for storage at −80° C. The MRSA isolate was likewise stored in BHI with 30% glycerol at −80° C. […] Before performing MIC analysis and biofilm experiments, the frozen stocks of MRSA and P. aeruginosa were streaked onto Columbia blood agar plates and grown overnight at 37° C. A. borkumensis ATCC 700651 was resuspended from a lyophilized pellet into marine broth, grown overnight at 30° C. and passaged on marine agar plates prior to experimentation.
(§4) To determine the MIC of polyamine compounds, the protocol described herein was used.
(§5) In brief, a 0.5 McFarland of each bacterial isolate was made. A 0.5 McFarland is a measure of turbidity in a liquid sample that contains approximately 1×10^^8 CFU/mL. The 0.5 McFarland standard was diluted in cation adjusted Mueller Hinton Broth (CAMHB), and 50 μL of broth were added to a well of a 96-well plate. In addition, 50 μL of CAMHB that contained a desired concentration of antimicrobial were also added to the well for a final volume of 100 μL and a final concentration of approximately 5×10^4 CFU/well (which equated to approximately 5×10^5 CFU/mL). Each well contained a desired amount of polyamine compound in order to experimentally determine the MIC. Each 96-well plate was incubated at 37° C. for 24 hours. The contents of each well were plated on tryptic soy agar (TSA). TSA plates were incubated for 37° C. for 24 hours after which the number of CFU were counted and used to calculate the CFU/mL that remained after exposure to varying concentrations of compound. This procedure was repeated n=8 times for each concentration of antimicrobial.

MRSA [4] = experiment: MIC analysis; type: cell-based; conditions: Staphylococcus aureus, 24 hours
Procedure: as §3, §4, §5

E. coli [5] = experiment: MIC analysis; type: cell-based; conditions: Escherichia coli, 24 hours
Procedure: as §4, §5

E. coli [6] = experiment: MBEC analysis, MBEC Inoculation Tray (column headed MBC); type: cell-based; conditions: Escherichia coli, 24 hours
MRSA [7] = experiment: EBEC analysis, high number biofilms on PEEK membranes; type: cell-based, Staphylococcus aureus; conditions: 24 hours
Procedure: (§6) To determine the efficacy of polyamine compounds against high number biofilms, biofilms were grown on the surface of polyetheretherketone (PEEK) membranes using a membrane biofilm reactor. This reactor was similar to the CDC biofilm reactor, but rather than growing biofilms on coupon surfaces, the reactor was modified to hold PEEK membranes. In short, to grow biofilms within this system, 500 mL of brain heart infusion (BHI) broth were inoculated with 1 mL of a 0.5 McFarland. The reactor was placed on a hot plate set at 34° C. and the bacteria were grown under batch conditions for 24 hours.
(§7) A solution of 10% BHI was then flowed through the reactor at a rate of 6.94 mL/min for an additional 24 hours. PEEK membranes were then removed and placed into 2 mL of CAMHB that contained a desired concentration of polyamine compound or antibiotic. The EBEC was defined as the concentration of antimicrobial required to reduce a biofilm from approximately 10^9 CFU/PEEK membrane to approximately 10^2 CFU/PEEK membrane in a 24-hour period.

A. baumannii [8] = experiment: MBEC analysis, MBEC Inoculation Tray (column headed MBC); type: cell-based; conditions: Acinetobacter baumannii, 24 hours
Excerpt: as §1, §2

A. baumannii [9] = experiment: MIC analysis; type: cell-based; conditions: Acinetobacter baumannii, 24 hours
Procedure: as §4, §5

A. baumannii [10] = experiment: EBEC analysis, high number biofilms on PEEK membranes; type: cell-based, Acinetobacter baumannii; conditions: 24 hours
Procedure: as §6, §7

Compound	MBC (P. aeruginosa [1]) [µg/mL]	MBC (MRSA [2]) [µg/mL]	MIC (P. aeruginosa [3]) [µg/mL]	MIC (MRSA [4]) [µg/mL]	MIC (E. coli [5]) [µg/mL]	MBC (E. coli [6]) [µg/mL]	EBEC (MRSA [7]) [µg/mL]	MBC (A. baumannii [8]) [µg/mL]	MIC (A. baumannii [9]) [µg/mL]	EBEC (A. baumannii [10]) [µg/mL]
CC(C)CNCCCNCCCNCc1cccc(-c2ccccc2-c2cccc(CNCCCNCCCNCC(C)C)c2)c1 [CZ-1-152]	32 (≈ 50.9 µM)	16 (≈ 25.4 µM)	32 (≈ 50.9 µM)	16 (≈ 25.4 µM)	–	–	–	–	–	–
CC(C)CNCCCNCCCNCc1cccc(-c2ccc(-c3cccc(CNCCCNCCCNCC(C)C)c3)c(CNCCCNCCCNCC(C)C)c2)c1 [CZ-1-153, N^1,N^1′,N^1″-([1,1′:4′,1″-terphenyl]-2′,3,3″-triyltris(methylene))tris(N^3-(3-(isobutylamino)propyl)propane-1,3-diamine)]	> 64	16 (≈ 19.3 µM)	> 64	16 (≈ 19.3 µM)	–	–	–	–	–	–
CC(C)CNCCCNCCCNCc1ccc(-c2ccccc2-c2ccc(CNCCCNCCCNCC(C)C)cc2)cc1 [CZ-1-154, N^1,N^1′-([1,1′:2′,1″-terphenyl]-4,4″-diylbis(methylene))bis(N^3-(3-(isobutylamino)propyl)propane-1,3-diamine)]	> 32	4 (≈ 6.36 µM)	32 (≈ 50.9 µM)	4 (≈ 6.36 µM)	16 (≈ 25.4 µM)	16 (≈ 25.4 µM)	–	–	–	–
CCCCCCNCCCNCCCNCc1cccc(-c2ccccc2-c2cccc(CNCCCNCCCNCCCCCC)c2)c1 [CZ-1-155, N^1,N^1′-([1,1′:2′,1″-terphenyl]-3,3″-diylbis(methylene))bis(N^3-(3-(hexylamino)propyl)propane-1,3-diamine)]	16 (≈ 23.4 µM)	16 (≈ 23.4 µM)	16 (≈ 23.4 µM)	16 (≈ 23.4 µM)	–	–	–	–	–	–
CC(C)CNCCCNCCCNCc1ccc(-c2cccc(-c3ccc(CNCCCNCCCNCC(C)C)cc3)c2)cc1 [CZ-1-157, N^1,N^1′-([1,1′:3′,1″-terphenyl]-4,4″-diylbis(methylene))bis(N^3-(3-(isobutylamino)propyl)propane-1,3-diamine)]	16 (≈ 25.4 µM)	4 (≈ 6.36 µM)	16 (≈ 25.4 µM)	4 (≈ 6.36 µM)	–	–	>750	–	–	–
CCCCC(CC)CNCCCNCCCNCc1ccc(-c2cccc(-c3ccc(CNCCCNCCCNCC(CC)CCCC)cc3)c2)cc1 (stereo not drawn) [CZ-1-161, N^1,N^1′-([1,1′:3′,1″-terphenyl]-4,4″-diylbis(methylene))bis(N^3-(3-((2-ethylhexyl)amino)propyl)propane-1,3-diamine)]	16 (≈ 21.6 µM)	2 (≈ 2.7 µM)	16 (≈ 21.6 µM)	1 (≈ 1.35 µM)	1 (≈ 1.35 µM)	1 (≈ 1.35 µM)	–	4 (≈ 5.4 µM)	4 (≈ 5.4 µM)	–
CCC(CC)CNCCCNCCCNCc1ccc(-c2cccc(-c3ccc(CNCCCNCCCNCC(CC)CC)cc3)c2)cc1 [CZ-1-164, N^1,N^1′-([1,1′:3′,1″-terphenyl]-4,4″-diylbis(methylene))bis(N^3-(3-((2-ethylbutyl)amino)propyl)propane-1,3-diamine)]	16 (≈ 23.4 µM)	1 (≈ 1.46 µM)	16 (≈ 23.4 µM)	1 (≈ 1.46 µM)	–	–	–	–	–	–
CCC(C)CNCCCNCCCNCc1ccc(-c2cccc(-c3ccc(CNCCCNCCCNCC(C)CC)cc3)c2)cc1 (stereo not drawn) [CZ-1-166, N^1,N^1′-([1,1′:3′,1″-terphenyl]-4,4″-diylbis(methylene))bis(N^3-(3-((2-methylbutyl)amino)propyl)propane-1,3-diamine)]	8 (≈ 12.2 µM)	1 (≈ 1.52 µM)	4 (≈ 6.09 µM)	1 (≈ 1.52 µM)	–	–	–	–	–	–
CC(C)CCNCCCNCCCNCc1ccc(-c2ccnc(-c3ccc(CNCCCNCCCNCCC(C)C)cc3)n2)cc1 [CZ-1-174, N^1,N^1′-((pyrimidine-2,4-diylbis(4,1-phenylene))bis(methylene))bis(N^3-(3-(isopentylamino)propyl)propane-1,3-diamine)]	> 64	16 (≈ 24.3 µM)	64 (≈ 97.1 µM)	8 (≈ 12.1 µM)	–	–	–	–	–	–
CC(C)CNCCCNCCCNCc1ccc(-c2cc(-c3ccc(CNCCCNCCCNCC(C)C)cc3)ncn2)cc1 [CZ-1-176, N^1,N^1′-((pyrimidine-4,6-diylbis(4,1-phenylene))bis(methylene))bis(N^3-(3-(isobutylamino)propyl)propane-1,3-diamine)]	64 (≈ 101 µM)	32 (≈ 50.7 µM)	64 (≈ 101 µM)	32 (≈ 50.7 µM)	–	–	–	–	–	–
CC(C)CNCCCNCCCNCc1ccc(-c2cc(-c3ccc(CNCCCNCCCNCC(C)C)cc3)cc(C(C)(C)C)c2)cc1 [CZ-1-177, N^1,N^1′-((5′-(tert-butyl)-[1,1′:3′,1″-terphenyl]-4,4″-diyl)bis(methylene))bis(N^3-(3-(isobutylamino)propyl)propane-1,3-diamine)]	> 4	1 (≈ 1.46 µM)	1 (≈ 1.46 µM)	1 (≈ 1.46 µM)	–	–	250	16 (≈ 23.4 µM)	8 (≈ 11.7 µM)	500
CCC(C)CNCCCNCCCNCc1ccc(-c2cc(-c3ccc(CNCCCNCCCNCC(C)CC)cc3)cc(C(C)(C)C)c2)cc1 (stereo not drawn) [CZ-1-178, N^1,N^1′-((5′-(tert-butyl)-[1,1′:3′,1″-terphenyl]-4,4″-diyl)bis(methylene))bis(N^3-(3-((2-methylbutyl)amino)propyl)propane-1,3-diamine)]	> 4	1 (≈ 1.4 µM)	1 (≈ 1.4 µM)	1 (≈ 1.4 µM)	–	–	<250	4 (≈ 5.61 µM)	2 (≈ 2.8 µM)	500
CCC(CC)CNCCCNCCCNCc1cccc(-c2cc(-c3cccc(CNCCCNCCCNCC(CC)CC)c3)cc(C(C)(C)C)c2)c1 [CZ-1-183, N^1,N^1′-((5′-(tert-butyl)-[1,1′:3′,1″-terphenyl]-3,3″-diyl)bis(methylene))bis(N^3-(3-((2-ethylbutyl)amino)propyl)propane-1,3-diamine)]	–	–	8 (≈ 10.8 µM)	0.5 (≈ 0.675 µM)	–	–	–	–	16 (≈ 21.6 µM)	–
CC(C)CNCCCNCCCNCc1cccc(-c2cc(-c3cccc(CNCCCNCCCNCC(C)C)c3)cc(C(C)(C)C)c2)c1 [CZ-1-184, N^1,N^1′-((5′-(tert-butyl)-[1,1′:3′,1″-terphenyl]-3,3″-diyl)bis(methylene))bis(N^3-(3-(isobutylamino)propyl)propane-1,3-diamine)]	–	–	16 (≈ 23.4 µM)	0.5 (≈ 0.73 µM)	–	–	–	–	64 (≈ 93.4 µM)	–
